Test system: rabbit ventricular myocytes
Assay: Two-dimensional gel electrophoresis proteomic analysis of protein modifications in pharmacologically preconditioned isolated ventricular myocytes
Assay type: cell-based
Conditions: 100 μmol/L, 60 minutes, 37° C.; for level of ADP ribosyl hydrolase: drug treated extracts relative to matching control extracts
Source text: Protein modifications occurring during preconditioning were identified by a multi-tiered two-dimensional gel electrophoresis approach (see FIG. 3) and subsequent analysis of the cytoplasmic and TFA extracts of adenosine and diazoxide-treated isolated cardiomyocytes (n=4) at concentrations capable of invoking preconditioning. […] The modified proteins identified herein are referred to as preconditioning proteins. Ventricular myocytes from New Zealand White rabbits (weighing 1 to 2 kg) were isolated by collagenase dissociation, as described previously by Liu et al. (Circ. Res. 1996 78:443–454). Hearts were excised, then perfused with collagenase (1.0 mg/mL, Worthington type II) for 14 minutes at a maintained perfusion pressure of 75 mm Hg on a Langendorff apparatus, yielding>50% Ca^2+-tolerant ventricular myocytes. Cell isolation was followed directly by pharmacological preconditioning, which was carried out by treatment with 100 μmol/L adenosine (Sigma) or with 100 μmol/L diazoxide (Sigma) for 60 minutes in a 37° C. water bath, as described previously by Liu et al. supra. Untreated cells were prepared concurrently as drug-free controls. Equivalent 25 μL aliquots of cells (containing ˜30 mg/mL of protein as determined by Lowry assay (Lowry, O. H. J. Biol. Chem. 1951 193:265–275) were frozen and stored at −80° C. until analysis. All steps in this Protein extraction protocol, referred to herein as “In Sequence” and depicted in FIG. 3, produce physiological pH (cytosolic) and acidic pH enriched extracts were carried out at 4° C., and all centrifugations were conducted at 16000×g for 2 minutes at 4° C. Myocyte proteins were first extracted by two rounds of homogenization in 100 μL of HEPES extraction buffer, consisting of (in mmol/L) HEPES 25 (pH 7.4), NaF 50, Na3VO4 0.25, phenylmethylsulfonyl fluoride 0.25, EDTA 0.5, and (in μmol/L) leupeptin 1.25, pepstatin A 1.25. Following homogenization and centrifugation, the supernatants were pooled and saved as the cytosolic extract. The remaining pellet was subjected to further extraction by two rounds of homogenization in 50 μL of acid extraction buffer, consisting of 1% v/v trifluoroacetic acid (TFA) and 1 mmol/L Tris(2-carboxyethylphosphine)hydrochloride (pH ˜2.0). Supernatants were again pooled, and saved as the acid extract. The two extracts and remaining pellet were frozen and stored at −80° C. Isoelectric focusing (IEF) of cytosolic and TFA extracts were carried out using a Protean® IEF cell (Bio-Rad) according to the manufacturer's protocol. Protein loads ranging from 5 up to 250 μg per gel were added to the following rehydration buffers: for cytosolic extracts, 8 M urea, 2.5 M thiourea, 4% CHAPS, 2 mM EDTA, and 25 mM DTT, and in the case of pH 6–9 strips, CHAPS and DTT were substituted by 4% ASB-14 and 5.4% (w/v) 2-hydroxyethyl disulfide, respectively; for acidic extracts, 8 M urea, 4% CHAPS, and 25 mM DTT. Immobilized pH gradient (IPG) Ready Strips™ (170 mm pH 4–7, 6–9, or 3–10 linear gradient, Bio-Rad) were actively rehydrated at 50 volts (V) for 10 hours to enhance protein uptake, then subjected to the following conditions using a rapid voltage ramping method: 100 V for 25 Volt-hours (Vh), 500 V for 125 Vh, 1000 V for 250 Vh, and 8000 V for 65 kVh. A Peltier temperature control platform maintained gels at 20° C. throughout IEF. Focused gels were stored at −20° C. prior to sodium dodecyl sulfate-polyacrylamide gel electrophoresis (SDS-PAGE). For SDS-PAGE, IPG strips were incubated for 10 minutes in equilibration buffer (50 mmol/L Tris-HCl, pH 8.8, 6 mol/L urea, 30% v/v glycerol, 2% w/v SDS) supplemented with 10 mg/mL DTT, followed by a 10 minute incubation in equilibration buffer supplemented with 25 mg/mL iodoacetamide, then rinsed once with SDS-PAGE buffer (25 mmol/L Tris, 192 mmol/L glycine, pH 8.3, 0.1% w/v SDS). IEF strips were then embedded in a 5% acrylamide stacking gel and the proteins were resolved by 10 or 12.5% SDS-PAGE using a Protean® II XL system (Bio-Rad). […]

[1] = 2-D gels vs untreated control myocytes, n=4

level of NG-dimethylarginine dimethylaminohydrolase (DDAH) [1]	level of RNA binding protein regulatory subunit (DJ-1) [1]	level of aldehyde dehydrogenase [1]	level of isocitrate dehydrogenase NAD+ specific subunit alpha (IDH) [1]	level of succinyl CoA ligase [ADP forming] beta chain [1]	level of ADP ribosyl hydrolase	level of dihydrolipoamide succinyltransferase [1]	post-translational modification of protein X (E3 binding protein of the pyruvate dehydrogenase complex) [1]	Compound	level of 24 kDa subunit (mitochondrial precursor) of Complex I [1]	level of 30 kDa subunit (mitochondrial precursor) of Complex I [1]	level of HSP27 [1]	level of core protein I of Complex III [1]	level of metaxin 2 [1]	level of prohibitin [1]	level of δ chain (mitochondrial precursor) of the F1 portion of Complex V [1]	extent of post-translational modification of the β chain of F1 portion (mitochondrial precursor) of Complex V (2-D gels, silver stain or western blot, vs control, two additional more acidic spots)	level of 23 kDa subunit (mitochondrial precursor) of Complex I [1]	level of d chain (mitochondrial precursor) of the F0 portion of Complex V [1]	sarcalumenin (58 kDa isoform) levels (HEPES extract, 2-D gels vs untreated control myocytes)
decreases	increased	increased	increase	increase	increased	–	–	Nc1ncnc2c1ncn2[C@@H]1O[C@H](CO)[C@@H](O)[C@H]1O [adenosine]	increases	increases	did not, however, observe a change	decreased	reduced	increase	increases	increase	–	–	–
increased	increased	increased	increases	–	increased	decrease	increases	CC1=NS(=O)(=O)c2cc(Cl)ccc2N1 [diazoxide]	increased	increased	increase	decreased	reduced	–	increased	–	increased	increased	decrease
